According to patent US20250295639A1, “METHODS FOR TREATING HEART DISEASES” (Cytokinetics, Incorporated, priority 2024, published 2025):

What was measured:
[1] = test system: patients with symptomatic obstructive HCM (oHCM); test: Phase 2 dose finding clinical trial of aficamten in symptomatic oHCM (10 weeks, Cohort 1 and Cohort 2); assay type: in vivo, human
Excerpt: Overall, the incidence of adverse events was similar between treatment arms. […] No new cases of atrial fibrillation were reported by the investigators. In this dose-range finding trial, one patient experienced a transient decrease in left ventricular ejection fraction (LVEF) that required dose adjustment but not dose interruption. […] A multi-center, randomized, placebo-controlled, double-blind, dose finding phase 2 clinical trial of aficamten in patients with symptomatic obstructive HCM (oHCM) was conducted and described as Example 2 in WO 2024/031016 and in U.S. Patent Publication US-2024-0115554-A1, the disclosures of which are incorporated by reference herein.

[2] = test system: patients with symptomatic oHCM; test: SEQUOIA-HCM secondary analysis: global remodelling response across five domains; assay type: in vivo, human
Method: SEQUOIA-HCM recruited patients with symptomatic oHCM (New York Heart Association [NYHA]≥class 2, baseline pVO2 of ≤90% of predicted, respiratory exchange ratio [RER] of ≥1.05). Patients were randomized 1:1 to aficamten (5-20 mg daily) or placebo, and doses were adjusted during the first 6 weeks to achieve relief from obstruction (LVOT-G<30 mmHg) while maintaining left ventricular ejection fraction (LVEF) ≥50%, for 24 weeks. In this secondary analysis, remodelling response was assessed across five domains including: 1) left atrial volume index (LAVI) graded as normal (16-34 mL/m^2), mild (35-41 mL/m^2), moderate (42-48 mL/m^2), severe enlargement (>48 mL/m^2); 2) presence of left ventricular hypertrophy (LVH) with strain pattern on electrocardiogram (EKG) assessed by core lab, 3) Hyperdynamic (≥72) LVEF by core lab; 4)N-terminal brain natriuretic peptide (NT-proBNP) improvement of ≥50%, and; and 5) decrease of maximal wall thickness (MWT) ≥1.5 mm.

For `CCc1nc(-c2ccc3c(c2)CC[C@H]3NC(=O)c2cnn(C)c2)no1` [aficamten, (R)—N-(5-(5-ethyl-1,2,4-oxadiazol-3-yl)-2,3-dihydro-1H-inden-1-yl)-1-methyl-1H-pyrazole-4-carboxamide], the tolerability ([1]; 10 weeks treatment) was “well tolerated”, the “patients achieving target goal of treatment (resting gradient <30 mmHg and post-Valsalva gradient <50 mmHg)” value ([1]; Cohort 1, Week 10) was 78.6% and the “patients achieving target goal of treatment (resting gradient <30 mmHg and post-Valsalva gradient <50 mmHg)” value ([1]; Cohort 2, Week 10) was 92.9%. The “LVEF after the end of treatment (reversibility)” value ([1]; both cohorts) was “returned towards baseline within two weeks”, the “dose dependence of observed reductions in LVOT-G” value ([1]; human, in vivo) was “dose dependent” and the “new cases of atrial fibrillation” value ([1]; human, in vivo) was “No new cases”. For the same compound, the “serious adverse events attributed to aficamten” value ([1]; human, in vivo) was “No serious adverse events”, the “time of onset of reductions in LVOT-G after initiating treatment” value ([1]; human, in vivo) was “within two weeks” and the “patients with beneficial remodelling in at least one of five domains” value ([2]; 142 aficamten treated patients) was 84%. For the same compound, the “patients with decrease by ≥50% in NT-proBNP” value ([2]; aficamten) was 81.7%, the “patients with improvement in MWT (decrease ≥1.5 mm)” value ([2]; aficamten) was 47.9% and the “patients with resolution of hyperdynamic LVEF” value ([2]; aficamten) was 35.2%. For the same compound, the “reduction in prevalence of LVH with strain pattern on EKG, patients” value ([2]; aficamten) was 19.0%, the “patients with improvement by one category in LAVI” value ([2]; among patients with abnormal LAVI (>34 mL/m^2) at baseline, 44/94) was 46.8% and the “number needed to treat to achieve beneficial remodelling” value ([2]; vs placebo) was 2.2.
